According to US12564638B2 (SHANGHAITECH UNIVERSITY, priority 2019, dated 2026):

Each molecule was assayed on HCC827 cells (EGFR Exon19 del, non-small cell lung cancer cells) (assay: Cell viability assay (WST/CCK8), HCC827 cells). Details: HCC827 cells, 72 hours.
Assay type: cell-based
Description: The cell lines with abnormal EGFR expression used are as follows: • HCC827 cells (EGFR Exon19 del, non-small cell lung cancer cells); • PC9 cells (EGFR Exon 19 del, non-small cell lung cancer cells); • PC9BracA1 (EGFR Exon 19 del+T790M, non-small cell lung cancer cells) • H1975 (EGFR Exon T790M+L858R mutation, non-small cell lung cancer cell line) • BT474 cells (HER2 positive breast cancer cells)
All of the half inhibitory concentrations (IC50) of these compounds of the present invention were determined with WST reagent from Fuyuan Biotec Company. The specific experiment procedures are as follows: Cancer cells were planted in 96-well-plate at the density of 3 000 cells per well with 100 μL RPMI1640 completed culture medium. In the next day, compounds with indicated concentrations were added to the cells, DMSO was used as the negative control and the EGFR TKIs were used to treat cells as the positive groups. After 72 hours drug treatment, cell viability was measured by using the WST reagent following the instructions.
The cells were treated with the gradient concentration of these compounds (the maximum concentration: 10 μM; 3-fold dilution ratio, 10 concentration gradients) for 72 hours and then incubated with the WST (CCK8) reagent to determine the cell viability.

Row | Compound | cell proliferation inhibition (in words)
1 | COc1cc2ncnc(Nc3cccc(Cl)c3F)c2cc1OC1CCN(CC(=O)NCCCCSc2cccc3c2CN(C2CCC(=O)NC2=O)C3=O)CC1 (centres unmarked) [SIAIS293067, 2-(4-((4-((3-chloro-2-fluorophenyl)amino)-7-methoxyquinazolin-6-yl)oxy)piperidin-1-yl)-N-(4-((2-(2,6-dioxopiperidin-3-yl)-1-oxoisoindolin-4-yl)thio)butyl)acetamide] | better than sapitinib on cell killing

Same assay, conditions: Homo sapiens, HCC827, 72 h, HCC827 (Exon19 Del), 72 hours, WST (CCK8); read-out: IC50 (half inhibitory concentration)

Row | Compound | IC50
2 | COc1cc2ncnc(Nc3ccc(F)c(Cl)c3)c2cc1NC(=O)/C=C/CN1CCN(C(=O)COCCOCCOCCOCCOCCSc2cccc3c2C(=O)N(C2CCC(=O)NC2=O)C3=O)CC1 (centres unmarked) [SIAIS262008, (E)-N-(4-((3-chloro-4-fluorophenyl)amino)-7-methoxyquinazolin-6-yl)-4-(4-(17-((2-(2,6-dioxopiperidin-3-yl)-1,3-dioxoisoindolin-4-yl)thio)-3,6,9,12,15-pentaoxaheptadecanoyl)piperazin-1-yl)but-2-enamide] | 46.6 nM
3 | COc1cc2ncnc(Nc3ccc(F)c(Cl)c3)c2cc1NC(=O)/C=C/CN1CCC(N2CCN(CCCCCNc3cccc4c3C(=O)N(C3CCC(=O)NC3=O)C4=O)CC2)CC1 (centres unmarked) [SIAIS262071, (E)-N-(4-((3-chloro-4-fluorophenyl)amino)-7-methoxyquinazolin-6-yl)-4-(4-(4-(5-((2-(2,6-dioxopiperidin-3-yl)-1,3-dioxoisoindolin-4-yl)amino)pentyl)piperazin-1-yl)piperidin-1-yl)but-2-enamide] | 5.9 nM
4 | COc1cc2ncnc(Nc3ccc(F)c(Cl)c3)c2cc1NC(=O)/C=C/CN1CCC(N2CCN(CCCCCCNc3cccc4c3C(=O)N(C3CCC(=O)NC3=O)C4=O)CC2)CC1 (centres unmarked) [SIAIS262072, (E)-N-(4-((3-chloro-4-fluorophenyl)amino)-7-methoxyquinazolin-6-yl)-4-(4-(4-(6-((2-(2,6-dioxopiperidin-3-yl)-1,3-dioxoisoindolin-4-yl)amino)hexyl)piperazin-1-yl)piperidin-1-yl)but-2-enamide] | 16.9 nM

Same assay, conditions: Homo sapiens, HCC827, 72 h, Table 4, gefitinib and sapitinib-based compounds; HCC827 (Exon19 Del); 72 hours; WST; read-out: IC50 (half inhibitory concentration)

Row | Compound | IC50
5 | COc1cc2ncnc(Nc3ccc(F)c(Cl)c3)c2cc1OCCCN1CCC(N2CCNCC2)CC1 [SIAIS262080, N-(3-chloro-4-fluorophenyl)-7-methoxy-6-(3-(4-(piperazin-1-yl)piperidin-1-yl)propoxy)quinazolin-4-amine] | 41 nM
6 | COc1cc2ncnc(Nc3ccc(F)c(Cl)c3)c2cc1OCCCN1CCC(N2CCN(C(=O)CSc3cccc4c3CN(C3CCC(=O)NC3=O)C4=O)CC2)CC1 (centres unmarked) [SIAIS262085, 3-(4-((2-(4-(1-(3-((4-((3-chloro-4-fluorophenyl)amino)-7-methoxyquinazolin-6-yl)oxy)propyl)piperidin-4-yl)piperazin-1-yl)-2-oxoethyl)thio)-1-oxoisoindolin-2-yl)piperidine-2,6-dione] | 145 nM
7 | COc1cc2ncnc(Nc3ccc(F)c(Cl)c3)c2cc1OCCCN1CCC(N2CCN(C(=O)CCCCSc3cccc4c3CN(C3CCC(=O)NC3=O)C4=O)CC2)CC1 (centres unmarked) [SIAIS262086, 3-(4-((5-(4-(1-(3-((4-((3-chloro-4-fluorophenyl)amino)-7-methoxyquinazolin-6-yl)oxy)propyl)piperidin-4-yl)piperazin-1-yl)-5-oxopentyl)thio)-1-oxoisoindolin-2-yl)piperidine-2,6-dione] | 59 nM
8 | COc1cc2ncnc(Nc3ccc(F)c(Cl)c3)c2cc1OCCCN1CCC(N2CCN(C(=O)CCCCCSc3cccc4c3CN(C3CCC(=O)NC3=O)C4=O)CC2)CC1 (centres unmarked) [SIAIS262087, 3-(4-((6-(4-(1-(3-((4-((3-chloro-4-fluorophenyl)amino)-7-methoxyquinazolin-6-yl)oxy)propyl)piperidin-4-yl)piperazin-1-yl)-6-oxohexyl)thio)-1-oxoisoindolin-2-yl)piperidine-2,6-dione] | 31 nM
9 | COc1cc2ncnc(Nc3ccc(F)c(Cl)c3)c2cc1OCCCN1CCC(N2CCN(CCCC#Cc3cccc4c3CN(C3CCC(=O)NC3=O)C4=O)CC2)CC1 (centres unmarked) [SIAIS262089, 3-(4-(5-(4-(1-(3-((4-((3-chloro-4-fluorophenyl)amino)-7-methoxyquinazolin-6-yl)oxy)propyl)piperidin-4-yl)piperazin-1-yl)pent-1-yn-1-yl)-1-oxoisoindolin-2-yl)piperidine-2,6-dione] | 102 nM
10 | COc1cc2ncnc(Nc3ccc(F)c(Cl)c3)c2cc1OCCCN1CCC(N2CCN(CCCCC#Cc3cccc4c3CN(C3CCC(=O)NC3=O)C4=O)CC2)CC1 (centres unmarked) [SIAIS262090, 3-(4-(6-(4-(1-(3-((4-((3-chloro-4-fluorophenyl)amino)-7-methoxyquinazolin-6-yl)oxy)propyl)piperidin-4-yl)piperazin-1-yl)hex-1-yn-1-yl)-1-oxoisoindolin-2-yl)piperidine-2,6-dione] | 47 nM
11 | COc1cc2ncnc(Nc3ccc(F)c(Cl)c3)c2cc1OC1CCN(CC(=O)NCCSc2cccc3c2CN(C2CCC(=O)NC2=O)C3=O)CC1 (centres unmarked) [SIAIS293047, 2-(4-((4-((3-chloro-4-fluorophenyl)amino)-7-methoxyquinazolin-6-yl)oxy)piperidin-1-yl)-N-(2-((2-(2,6-dioxopiperidin-3-yl)-1-oxoisoindolin-4-yl)thio)ethyl)acetamide] | 12 nM
12 | COc1cc2ncnc(Nc3ccc(F)c(Cl)c3)c2cc1OC1CCN(CC(=O)NCCCSc2cccc3c2CN(C2CCC(=O)NC2=O)C3=O)CC1 (centres unmarked) [SIAIS293048, 2-(4-((4-((3-chloro-4-fluorophenyl)amino)-7-methoxyquinazolin-6-yl)oxy)piperidin-1-yl)-N-(3-((2-(2,6-dioxopiperidin-3-yl)-1-oxoisoindolin-4-yl)thio)propyl)acetamide] | 23 nM
13 | COc1cc2ncnc(Nc3ccc(F)c(Cl)c3)c2cc1OC1CCN(CC(=O)NCCCCSc2cccc3c2CN(C2CCC(=O)NC2=O)C3=O)CC1 (centres unmarked) [SIAIS293049, 2-(4-((4-((3-chloro-4-fluorophenyl)amino)-7-methoxyquinazolin-6-yl)oxy)piperidin-1-yl)-N-(4-((2-(2,6-dioxopiperidin-3-yl)-1-oxoisoindolin-4-yl)thio)butyl)acetamide] | 2.8 nM
14 | COc1cc2ncnc(Nc3ccc(F)c(Cl)c3)c2cc1OC1CCN(CC(=O)NCCCCCCSc2cccc3c2CN(C2CCC(=O)NC2=O)C3=O)CC1 (centres unmarked) [SIAIS293050, 2-(4-((4-((3-chloro-4-fluorophenyl)amino)-7-methoxyquinazolin-6-yl)oxy)piperidin-1-yl)-N-(6-((2-(2,6-dioxopiperidin-3-yl)-1-oxoisoindolin-4-yl)thio)hexyl)acetamide] | 1.5 nM
15 | COc1cc2ncnc(Nc3ccc(F)c(Cl)c3)c2cc1OC1CCN(CC(=O)NCCCCCCCSc2cccc3c2CN(C2CCC(=O)NC2=O)C3=O)CC1 (centres unmarked) [SIAIS293051, 2-(4-((4-((3-chloro-4-fluorophenyl)amino)-7-methoxyquinazolin-6-yl)oxy)piperidin-1-yl)-N-(7-((2-(2,6-dioxopiperidin-3-yl)-1-oxoisoindolin-4-yl)thio)heptyl)acetamide] | 6.5 nM
16 | COc1cc2ncnc(Nc3ccc(F)c(Cl)c3)c2cc1OC1CCN(CC(=O)NCCCCCCCCSc2cccc3c2CN(C2CCC(=O)NC2=O)C3=O)CC1 (centres unmarked) [SIAIS293052, 2-(4-((4-((3-chloro-4-fluorophenyl)amino)-7-methoxyquinazolin-6-yl)oxy)piperidin-1-yl)-N-(8-((2-(2,6-dioxopiperidin-3-yl)-1-oxoisoindolin-4-yl)thio)octyl)acetamide] | 0.25 nM
17 | COc1cc2ncnc(Nc3cccc(Cl)c3F)c2cc1OC1CCN(CC(=O)NCCCCSc2cccc3c2CN(C2CCC(=O)NC2=O)C3=O)CC1 (centres unmarked) [SIAIS293067, 2-(4-((4-((3-chloro-2-fluorophenyl)amino)-7-methoxyquinazolin-6-yl)oxy)piperidin-1-yl)-N-(4-((2-(2,6-dioxopiperidin-3-yl)-1-oxoisoindolin-4-yl)thio)butyl)acetamide] | 0.3 nM
